From PubChem BioAssay (NCI)
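Briefly, cells in 96-well plates were exposed to five compound concentrations for 48 h, and endpoints were estimated by linear interpolation. At the GI50, growth is halved. Definition used: TGI = concentration required for complete inhibition of growth.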

Legend:
Experiment in all cases: NCI-60 cell line screen, 48 h
KM12 colon = system: KM12 colon
HCT-116 colon = system: HCT-116 colon
HOP-62 NSCLC = system: HOP-62 NSCLC
A498 renal = system: A498 renal
OVCAR-5 ovarian = system: OVCAR-5 ovarian
PC-3 prostate = system: PC-3 prostate
NCI-H226 lung = system: NCI-H226 lung
HOP-92 NSCLC = system: HOP-92 NSCLC
A549 NSCLC = system: A549 NSCLC
EKVX NSCLC = system: EKVX NSCLC
NCI-H460 lung = system: NCI-H460 lung
SR leukemia = system: SR leukemia
MALME-3M melanoma = system: MALME-3M melanoma
SF-539 CNS = system: SF-539 CNS
BT-549 breast = system: BT-549 breast
SNB-19 CNS = system: SNB-19 CNS
IGROV1 ovarian = system: IGROV1 ovarian
HCC-2998 colon = system: HCC-2998 colon
HL-60(TB) leukemia = system: HL-60(TB) leukemia
NCI-H522 lung = system: NCI-H522 lung
DU-145 prostate = system: DU-145 prostate
TK-10 renal = system: TK-10 renal
MOLT-4 leukemia = system: MOLT-4 leukemia
MCF7 breast = system: MCF7 breast
CCRF-CEM leukemia = system: CCRF-CEM leukemia
SF-268 CNS = system: SF-268 CNS
LOX IMVI melanoma = system: LOX IMVI melanoma
HT29 colon = system: HT29 colon
OVCAR-3 ovarian = system: OVCAR-3 ovarian
SK-MEL-5 melanoma = system: SK-MEL-5 melanoma
UO-31 renal = system: UO-31 renal
UACC-62 melanoma = system: UACC-62 melanoma
MDA-MB-435 = system: MDA-MB-435
SK-OV-3 ovarian = system: SK-OV-3 ovarian
MDA-MB-231 breast = system: MDA-MB-231 breast
M14 melanoma = system: M14 melanoma
786-0 renal = system: 786-0 renal
NCI/ADR-RES ovarian = system: NCI/ADR-RES ovarian
NCI-H23 lung = system: NCI-H23 lung
CAKI-1 renal = system: CAKI-1 renal
SN12C renal = system: SN12C renal
OVCAR-8 ovarian = system: OVCAR-8 ovarian
SW-620 colon = system: SW-620 colon
U251 CNS = system: U251 CNS
ACHN renal = system: ACHN renal
T-47D breast = system: T-47D breast
OVCAR-4 ovarian = system: OVCAR-4 ovarian
SNB-75 CNS = system: SNB-75 CNS
HS 578T breast = system: HS 578T breast
HCT-15 colon = system: HCT-15 colon
SF-295 CNS = system: SF-295 CNS
RXF 393 renal = system: RXF 393 renal
COLO 205 colon = system: COLO 205 colon
UACC-257 melanoma = system: UACC-257 melanoma
SK-MEL-28 melanoma = system: SK-MEL-28 melanoma
RPMI-8226 leukemia = system: RPMI-8226 leukemia
K-562 leukemia = system: K-562 leukemia
SK-MEL-2 melanoma = system: SK-MEL-2 melanoma

## CC1(C)CC(OCCCC[P+](c2ccccc2)(c2ccccc2)c2ccccc2)CC(C)(C)N1O
KM12 colon
  GI50: 284 nM
  TGI: 966 nM
HCT-116 colon
  GI50: 238 nM
  TGI: 3610 nM
HOP-62 NSCLC
  GI50: 440 nM
  TGI: 2100 nM
A498 renal
  GI50: 644 nM
  TGI: 3890 nM
OVCAR-5 ovarian
  GI50: 481 nM
  TGI: 8420 nM
PC-3 prostate
  GI50: 205 nM
  TGI: 4040 nM
NCI-H226 lung
  GI50: 472 nM
  TGI: 10600 nM
HOP-92 NSCLC
  GI50: 199 nM
  TGI: 903 nM
A549 NSCLC
  GI50: 370 nM
  TGI: 11500 nM
EKVX NSCLC
  GI50: 256 nM
  TGI: 4370 nM
NCI-H460 lung
  GI50: 282 nM
  TGI: 1520 nM
SR leukemia
  GI50: 273 nM
  TGI: 1540 nM
MALME-3M melanoma
  GI50: 317 nM
  TGI: 1070 nM
SF-539 CNS
  GI50: 327 nM
  TGI: 10200 nM
BT-549 breast
  GI50: 274 nM
  TGI: 1040 nM
SNB-19 CNS
  GI50: 317 nM
  TGI: 2200 nM
IGROV1 ovarian
  GI50: 477 nM
  TGI: 2020 nM
HCC-2998 colon
  GI50: 287 nM
  TGI: 3190 nM
HL-60(TB) leukemia
  GI50: 125 nM
  TGI: 421 nM
NCI-H522 lung
  GI50: 275 nM
  TGI: 1160 nM
DU-145 prostate
  GI50: 409 nM
  TGI: 7750 nM
TK-10 renal
  GI50: 361 nM
  TGI: 2360 nM
MOLT-4 leukemia
  GI50: 340 nM
  TGI: 4120 nM
MCF7 breast
  GI50: 203 nM
  TGI: 1200 nM
CCRF-CEM leukemia
  GI50: 246 nM
  TGI: 1520 nM
SF-268 CNS
  GI50: 412 nM
  TGI: 1880 nM
LOX IMVI melanoma
  GI50: 317 nM
  TGI: 1250 nM
HT29 colon
  GI50: 340 nM
  TGI: 7260 nM
OVCAR-3 ovarian
  GI50: 241 nM
  TGI: 871 nM
SK-MEL-5 melanoma
  GI50: 163 nM
  TGI: 358 nM
UO-31 renal
  GI50: 2660 nM
  TGI: 8290 nM
UACC-62 melanoma
  GI50: 392 nM
  TGI: 1640 nM
MDA-MB-435
  GI50: 301 nM
  TGI: 1150 nM
SK-OV-3 ovarian
  GI50: 302 nM
  TGI: 787 nM
MDA-MB-231 breast
  GI50: 252 nM
  TGI: 832 nM
M14 melanoma
  GI50: 433 nM
  TGI: 1900 nM
786-0 renal
  GI50: 738 nM
  TGI: 2230 nM
NCI/ADR-RES ovarian
  GI50: 5560 nM
  TGI: 21500 nM
NCI-H23 lung
  GI50: 254 nM
  TGI: 1950 nM
CAKI-1 renal
  GI50: 1190 nM
  TGI: 4010 nM
SN12C renal
  GI50: 306 nM
  TGI: 1180 nM
OVCAR-8 ovarian
  GI50: 333 nM
  TGI: 2610 nM
SW-620 colon
  GI50: 337 nM
  TGI: 4860 nM
U251 CNS
  GI50: 247 nM
  TGI: 1540 nM
ACHN renal
  GI50: 2390 nM
  TGI: 7280 nM
T-47D breast
  GI50: 143 nM
  TGI: 1230 nM
OVCAR-4 ovarian
  GI50: 320 nM
  TGI: 4320 nM
SNB-75 CNS
  GI50: 331 nM
  TGI: 3610 nM
HS 578T breast
  GI50: 229 nM
  TGI: 1030 nM
HCT-15 colon
  GI50: 2780 nM
  TGI: 9120 nM
SF-295 CNS
  GI50: 337 nM
  TGI: 1390 nM
RXF 393 renal
  GI50: 518 nM
  TGI: 2080 nM
COLO 205 colon
  GI50: 202 nM
  TGI: 402 nM
UACC-257 melanoma
  GI50: 307 nM
  TGI: 977 nM
SK-MEL-28 melanoma
  GI50: 628 nM
  TGI: 2020 nM
RPMI-8226 leukemia
  GI50: 19 nM
  TGI: 133 nM
K-562 leukemia
  GI50: 186 nM
  TGI: 18100 nM
SK-MEL-2 melanoma
  GI50: 272 nM
  TGI: 641 nM

## CN1CCN(Cc2ccc(NC(=O)c3nc4ccc5[nH]ncc5c4c4c3CCC4)cc2C(F)(F)F)CC1
KM12 colon
  GI50: 957 nM
  TGI: 1910 nM
HCT-116 colon
  GI50: 856 nM
  TGI: 1610 nM
HOP-62 NSCLC
  GI50: 867 nM
  TGI: 1710 nM
A498 renal
  GI50: 6620 nM
  TGI: 13400 nM
OVCAR-5 ovarian
  GI50: 994 nM
  TGI: 2410 nM
PC-3 prostate
  GI50: 926 nM
  TGI: 2120 nM
NCI-H226 lung
  GI50: 2230 nM
  TGI: 11300 nM
HOP-92 NSCLC
  GI50: 3530 nM
  TGI: 10600 nM
A549 NSCLC
  GI50: 920 nM
  TGI: 1830 nM
EKVX NSCLC
  GI50: 1260 nM
  TGI: 4840 nM
NCI-H460 lung
  GI50: 926 nM
  TGI: 1730 nM
SR leukemia
  GI50: 1100 nM
  TGI: 2680 nM
MALME-3M melanoma
  GI50: 800 nM
  TGI: 1520 nM
SF-539 CNS
  GI50: 879 nM
  TGI: 1580 nM
BT-549 breast
  GI50: 7610 nM
  TGI: 14900 nM
SNB-19 CNS
  GI50: 976 nM
  TGI: 2110 nM
IGROV1 ovarian
  GI50: 907 nM
  TGI: 1700 nM
HCC-2998 colon
  GI50: 830 nM
  TGI: 1650 nM
HL-60(TB) leukemia
  GI50: 1060 nM
  TGI: 2280 nM
NCI-H522 lung
  GI50: 981 nM
  TGI: 2310 nM
DU-145 prostate
  GI50: 944 nM
  TGI: 1760 nM
TK-10 renal
  GI50: 884 nM
  TGI: 1650 nM
MOLT-4 leukemia
  GI50: 1100 nM
  TGI: 2580 nM
MCF7 breast
  GI50: 906 nM
  TGI: 1820 nM
CCRF-CEM leukemia
  GI50: 1250 nM
  TGI: 3640 nM
SF-268 CNS
  GI50: 7970 nM
  TGI: 16500 nM
LOX IMVI melanoma
  GI50: 832 nM
  TGI: 1540 nM
HT29 colon
  GI50: 1020 nM
  TGI: 2080 nM
OVCAR-3 ovarian
  GI50: 904 nM
  TGI: 1680 nM
SK-MEL-5 melanoma
  GI50: 7470 nM
  TGI: 14100 nM
UO-31 renal
  GI50: 728 nM
  TGI: 1380 nM
UACC-62 melanoma
  GI50: 1880 nM
  TGI: 6940 nM
MDA-MB-435
  GI50: 926 nM
  TGI: 1710 nM
SK-OV-3 ovarian
  GI50: 8280 nM
  TGI: 15500 nM
MDA-MB-231 breast
  GI50: 924 nM
  TGI: 1680 nM
M14 melanoma
  GI50: 934 nM
  TGI: 1760 nM
786-0 renal
  GI50: 859 nM
  TGI: 1560 nM
NCI/ADR-RES ovarian
  GI50: 931 nM
  TGI: 2140 nM
NCI-H23 lung
  GI50: 1070 nM
  TGI: 3220 nM
CAKI-1 renal
  GI50: 815 nM
  TGI: 1560 nM
SN12C renal
  GI50: 873 nM
  TGI: 1640 nM
OVCAR-8 ovarian
  GI50: 1050 nM
  TGI: 2220 nM
SW-620 colon
  GI50: 975 nM
  TGI: 2030 nM
U251 CNS
  GI50: 875 nM
  TGI: 1600 nM
ACHN renal
  GI50: 861 nM
  TGI: 1550 nM
T-47D breast
  GI50: 1070 nM
  TGI: 2840 nM
OVCAR-4 ovarian
  GI50: 911 nM
  TGI: 1980 nM
SNB-75 CNS
  GI50: 4810 nM
  TGI: 10800 nM
HS 578T breast
  GI50: 833 nM
  TGI: 1650 nM
HCT-15 colon
  GI50: 870 nM
  TGI: 1750 nM
SF-295 CNS
  GI50: 6970 nM
  TGI: 13800 nM
RXF 393 renal
  GI50: 1190 nM
  TGI: 4370 nM
COLO 205 colon
  GI50: 7270 nM
  TGI: 14700 nM
UACC-257 melanoma
  GI50: 990 nM
  TGI: 2010 nM
SK-MEL-28 melanoma
  GI50: 899 nM
  TGI: 1620 nM
RPMI-8226 leukemia
  GI50: 1140 nM
  TGI: 2820 nM
K-562 leukemia
  GI50: 978 nM
  TGI: 2390 nM
SK-MEL-2 melanoma
  GI50: 1160 nM
  TGI: 2490 nM
